The EC50 is the concentration at which the effect is half-maximal.

These results are taken from paper PMC4192806 (Endocrinology and Metabolism, 2014).

The target of one data set is human GLP1R (Homo sapiens, UniProt P43220). The data set can be described thus: CRE-luc luciferase assay in GLP1R and CRE-luc cotransfected HEK293T cells. It counts as cell-based.
Data set [1] concerns the target DPP-IV activity of fetal bovine serum (Bos taurus, UniProt P81425). The data set can be described thus: Stability in 100% FBS, residual activity by GLP1R/CRE-luc luciferase assay. It is filed as in vitro ADME. The settings on record: FBS incubation, 37℃.

No end group written: not given here.

Sequence of human GLP1R (P43220 24-463): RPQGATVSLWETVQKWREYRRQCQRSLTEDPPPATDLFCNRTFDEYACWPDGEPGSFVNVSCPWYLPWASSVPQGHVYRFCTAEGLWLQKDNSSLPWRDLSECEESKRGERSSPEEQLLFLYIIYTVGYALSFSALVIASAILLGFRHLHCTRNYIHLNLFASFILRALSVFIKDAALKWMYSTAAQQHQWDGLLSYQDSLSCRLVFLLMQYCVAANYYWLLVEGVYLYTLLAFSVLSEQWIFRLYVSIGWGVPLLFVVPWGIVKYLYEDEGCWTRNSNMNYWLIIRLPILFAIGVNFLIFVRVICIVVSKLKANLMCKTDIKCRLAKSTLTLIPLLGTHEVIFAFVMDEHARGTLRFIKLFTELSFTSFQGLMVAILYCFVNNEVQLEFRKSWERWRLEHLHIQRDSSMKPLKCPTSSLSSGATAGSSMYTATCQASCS
Sequence of DPP-IV activity of fetal bovine serum (P81425 38-765 limits assumed): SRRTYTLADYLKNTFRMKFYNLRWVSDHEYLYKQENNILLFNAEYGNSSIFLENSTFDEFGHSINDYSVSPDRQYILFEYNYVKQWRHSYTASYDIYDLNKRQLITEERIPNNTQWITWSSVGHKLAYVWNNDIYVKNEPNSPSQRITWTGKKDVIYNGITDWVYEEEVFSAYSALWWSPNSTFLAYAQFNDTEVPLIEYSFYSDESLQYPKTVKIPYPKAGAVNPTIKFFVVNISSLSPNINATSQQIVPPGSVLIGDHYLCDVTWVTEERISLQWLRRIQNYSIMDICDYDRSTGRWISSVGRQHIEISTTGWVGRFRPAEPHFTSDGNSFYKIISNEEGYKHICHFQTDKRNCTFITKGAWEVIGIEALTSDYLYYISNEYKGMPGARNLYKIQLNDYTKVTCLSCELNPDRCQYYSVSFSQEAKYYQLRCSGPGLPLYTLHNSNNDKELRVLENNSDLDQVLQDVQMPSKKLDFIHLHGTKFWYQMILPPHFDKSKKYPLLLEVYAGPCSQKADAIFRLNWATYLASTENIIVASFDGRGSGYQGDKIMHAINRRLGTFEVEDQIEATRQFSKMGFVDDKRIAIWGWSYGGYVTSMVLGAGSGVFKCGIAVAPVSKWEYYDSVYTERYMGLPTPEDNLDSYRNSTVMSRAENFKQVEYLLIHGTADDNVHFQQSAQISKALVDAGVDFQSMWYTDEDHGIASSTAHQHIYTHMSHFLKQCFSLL

As to “HAEGTFTNDMTNYLEEKAAKEFVGWLIKGR-NH2 [xGLP, Xenopus GLP-1, reference compound]”, at human GLP1R, the EC50 is 832 pM.
As to “HSEGTFTNDMTNYLEEKAAKEFVGWLIKGGPSSGAPPPS [xGLP-E4]”, the “stability in serum (overall comparison, words)” value in data set [1] was “more stable in serum than wild-type human and xGLP”. Moreover, at human GLP1R, the EC50 is 155 pM.
